Like-named read-outs stand apart in the source and are kept apart here.
Experiments:
[1] = system: RSV B (Wash/18537 strain); experiment: In vitro CPE (CytoPathic Effect) inhibition effect evaluation test, RSV type B; format: cell-based
Procedure: The test sample is diluted in advance to an appropriate concentration with DMSO, and 3-fold series of serial dilutions were prepared on a 384-well plate (0.32 μL/well). HEp-2 cells (CCL-23; ATCC) adjusted at appropriate number (2.4×10^5 cells/mL) in 2% FBS E-MEM (prepared by adding kanamycin and FBS to Eagle's Minimum Essential Medium; Invitrogen) were added at 12.5 μL/well to the 384-well plate previously aliquoted with the test samples. The RSV A2 strain was diluted to an appropriate concentration in a culture medium and added to the 384-well plate containing the test sample at 12.5 μL/well. The culture medium was added additionally to the 384-well plate, and the test was started with 50 μL/well. Control wells were prepared with only virus-free culture medium. The plate was incubated in a 5% CO2 incubator at 37° C. for 4 days, and the plate was then placed at room temperature for 30 minutes. CellTiter-Glo (registered trademark) 2.0 assay (Promega) was added at 15 μL/well, mixed for 30 seconds, and the plate was placed for approximately 1 hour. The luminescent signal was then measured by EnVision (PerkinElmer). The inhibitory effect of the test agents on RSV-induced CPE was calculated as 0% and 100% inhibition rate for each sample concentration based on the level of remaining viable cells by CellTiter-Glo (registered trademark) 2.0, with the EC50 value for each compound calculated by nonlinear regression as the concentration that inhibits RSV-induced CPE by 50%. In the case of evaluation against RSV type B, RSV B (Wash/18537 strain) was infected in the same manner as the type A, cultured for 5 days, and quantitated in the same manner as for the A2 strain.

RSV A2 strain = experiment: In vitro CPE (CytoPathic Effect) inhibition effect evaluation test, RSV type A; format: cell-based
Method in brief: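 HEp-2 cells (2.4×10^5 cells/mL, 2% FBS E-MEM) were infected with RSV alongside 3-fold compound dilutions and incubated at 37 °C, 4 days for A2 and 5 days for B Wash/18537. Viable cells quantified by CellTiter-Glo 2.0 luminescence; EC50 by nonlinear regression as 50% CPE inhibition.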

[2] = human respiratory syncytial virus, inhibitory effect against RSV type B, CPE inhibition, read-out: EC50
[3] = human respiratory syncytial virus, inhibitory effect against RSV type A (RSV A2 strain), HEp-2 cells, CPE inhibition, read-out: EC50
[4] = human respiratory syncytial virus, HEp-2, 120 h, HEp-2 cells, RSV B (Wash/18537 strain), 5 days, CellTiter-Glo, read-out: EC50, inhibitory effect against RSV type B (CPE inhibition)
[5] = human respiratory syncytial virus, HEp-2, 96 h, read-out: EC50, inhibitory effect against RSV type A (CPE inhibition)
[6] = inhibitory effect against RSV type B, CPE inhibition, read-out: EC50
[7] = inhibitory effect against RSV type A (RSV A2 strain), HEp-2 cells, CPE inhibition, read-out: EC50

| SMILES | EC50 [1, 2] [µM] | EC50 (RSV A2 strain; [3]) [µM] | further results |
| --- | --- | --- | --- |
| O=C(NC1(C(=O)O)C2CC3CC(C2)CC1C3)c1cnc(-c2cn(C3CCC(F)CC3)c3cc(O[C@H]4CC[C@H](N5CC(F)(F)C5)CC4)ccc23)nc1C(F)(F)F (single isomer, unassigned) [Compound I-509] | < 0.01 | < 0.01 | – |
| O=C(NC1(C(=O)O)C2CC3CC(C2)CC1C3)c1cnc(-c2cn(C3CCC(F)(F)CC3)c3cc(OC4CC(CN5CC(F)(F)C5)C4)ccc23)nc1C(F)(F)F (single isomer, unassigned) [Compound I-516] | 0.01 to 0.1 | < 0.01 | – |
| CC(F)(F)c1nc(-c2cn(C3CCC(F)CC3)c3cc(O[C@H]4CC[C@H](N5CC(F)(F)C5)CC4)ccc23)ncc1C(=O)NC1(C(=O)O)C2CC3CC(C2)CC1C3 (single isomer, unassigned) [Compound I-568] | < 0.01 | < 0.01 | – |
| O=C(NC1(C(=O)O)C2CC3CC(C2)CC1C3)c1ccc(-c2cn(C3CCC(F)CC3)c3cc(O[C@H]4CC[C@H](N5CC(F)(F)C5)CC4)ccc23)nc1C(F)(F)F (single isomer, unassigned) [Compound I-579] | < 0.01 | < 0.01 | – |
| CC(F)(F)c1nc(-c2cn(C3CCC(F)(F)CC3)c3cc(O[C@H]4C[C@@H](N5CC(F)(F)C5)C4)ccc23)ncc1C(=O)NC1(C(=O)O)C2CC3CC(C2)CC1C3 (single isomer, unassigned) [Compound I-619] | < 0.01 | < 0.01 | – |
| CC(F)(F)c1nc(-c2cn(C3CCOCC3)c3cc(OC4CC(N5CC(F)(F)C5)C4)ccc23)ncc1C(=O)NC1(C(=O)O)C2CC3CC(C2)CC1C3 (single isomer, unassigned) [Compound I-621] | < 0.01 | < 0.01 | – |
| COCCCCOc1ccc2c(c1C)CCN2c1ncc(C(=O)NC2(C(=O)O)CCCCC2)c(C(F)(F)F)n1 [Compound I-1] | 0.1 to 5 | 0.01 to 0.1 | – |
| COCCCCOc1ccc2c(c1)CCN2c1ncc(C(=O)NC2(C(=O)O)CCCCC2)c(C(F)(F)F)n1 [Compound I-2] | 0.1 to 5 | 0.01 to 0.1 | – |
| COc1cccc(COc2ccc3c(c2)CCN3c2ncc(C(=O)NC3(C(=O)O)CCCCC3)c(C(F)(F)F)n2)c1 [Compound I-3] | 0.01 to 0.1 | 0.01 to 0.1 | – |
| O=C(NC1(C(=O)O)CCCCC1)c1cnc(N2CCc3cc(OCCc4ccccc4)ccc32)nc1C(F)(F)F [Compound I-4] | 0.1 to 5 | 0.01 to 0.1 | – |
| N#CCCCCOc1ccc2c(c1)CCN2c1ncc(C(=O)NC2(C(=O)O)CCCCC2)c(C(F)(F)F)n1 [Compound I-5] | 0.1 to 5 | 0.01 to 0.1 | – |
| COCCCOc1ccc2c(c1)CCN2c1ncc(C(=O)NC2(C(=O)O)CCCCC2)c(C(F)(F)F)n1 [Compound I-7] | 0.1 to 5 | 0.01 to 0.1 | – |
| O=C(NC1(C(=O)O)CCCCC1)c1cnc(N2CCc3cc(OCCC4CCOCC4)ccc32)nc1C(F)(F)F [Compound I-8] | 0.01 to 0.1 | 0.01 to 0.1 | – |
| COCc1ccc(-c2ccc3c(c2)CCN3c2ncc(C(=O)NC3(C(=O)O)CCCCC3)c(C(F)(F)F)n2)cc1 [Compound I-9] | 0.1 to 5 | 0.01 to 0.1 | – |
| COc1cccc(COc2ccc3c(c2)CCN3c2ncc(C(=O)NC3(C(=O)O)C4CC5CC(C4)CC3C5)c(C(F)(F)F)n2)c1 (centres unmarked) [Compound I-21] | 0.01 to 0.1 | < 0.01 | – |
| O=C(NC1(C(=O)O)C2CC3CC(C2)CC1C3)c1cnc(N2CCc3cc(OCCC4CCOCC4)ccc32)nc1C(F)(F)F (centres unmarked) [Compound I-23] | – | – | EC50 [1, 4]: 0.016 µM; EC50 (RSV A2 strain; [5]): 0.00096 µM |
| O=C(NC1(C(=O)O)C2CC3CC(C2)CC1C3)c1cnc(N2CCc3cc(OCCN4CCOCC4)ccc32)nc1C(F)(F)F (centres unmarked) [Compound I-31] | 0.01 to 0.1 | < 0.01 | – |
| O=C(NC1(C(=O)O)CCCCC1)c1ccc(N2CCc3cc(OCCC4CCOCC4)ccc32)nc1C(F)(F)F [Compound I-33] | – | – | EC50 [1, 4]: 0.11 µM; EC50 (RSV A2 strain; [5]): 0.0075 µM |
| O=C(NC1(C(=O)O)CCCCC1)c1cnc(N2CCc3cc(OC4CCN(c5ncccn5)CC4)ccc32)nc1C(F)(F)F [Compound I-36] | 0.01 to 0.1 | < 0.01 | – |
| O=C(NC1(C(=O)O)C2CC3CC(C2)CC1C3)c1cnc(N2CCc3cc(OC4CCN(c5ncccn5)CC4)ccc32)nc1C(F)(F)F (centres unmarked) [Compound I-45] | – | – | EC50 [1, 6]: < 0.01 µM; EC50 (RSV A2 strain; [7]): < 0.01 µM |

| SMILES | EC50 [1, 2] [µM] | EC50 (RSV A2 strain; [3]) [µM] | further results |
| --- | --- | --- | --- |
| O=C(NC1(C(=O)O)CCCCC1)c1cnc(N2CC3(CCOCC3)c3cc(OCCC4CCOCC4)ccc32)nc1C(F)(F)F [Compound I-56] | 0.01 to 0.1 | < 0.01 | – |
| Cc1nc(N2CCc3cc(OCCC4CCOCC4)ccc32)nc(C(F)(F)F)c1C(=O)NC1(C(=O)O)CCCCC1 [Compound I-72] | 0.1 to 5 | < 0.01 | – |
| COc1ccc2c(c1)C1(CCOCC1)CN2c1ncc(C(=O)NC2(C(=O)O)C3CC4CC(C3)CC2C4)c(C(F)(F)F)n1 (centres unmarked) [Compound I-80] | – | – | EC50 [1, 6]: < 0.01 µM; EC50 (RSV A2 strain; [7]): < 0.01 µM |
| O=C(NC1(C(=O)O)CCCCC1)c1cnc(N2CC3(CCOCC3)c3cc(OC4CCN(c5ncccn5)CC4)ccc32)nc1C(F)(F)F [Compound I-81] | < 0.01 | < 0.01 | – |
| O=C(NC1(C(=O)O)C2CC3CC(C2)CC1C3)c1cnc(N2CC3(CCOCC3)c3cc(OC4CCN(c5ncccn5)CC4)ccc32)nc1C(F)(F)F (centres unmarked) [Compound I-82] | – | – | EC50 [1, 4]: 0.00034 µM; EC50 (RSV A2 strain; [5]): 0.00027 µM |
| O=C(NC1(C(=O)O)C2CC3CC(C2)CC1C3)c1cnc(N2CC3(CCOCC3)c3cc(OCCC4CCOCC4)ccc32)nc1C(F)(F)F (centres unmarked) [Compound I-83] | – | – | EC50 [1, 6]: < 0.01 µM; EC50 (RSV A2 strain; [7]): < 0.01 µM |
| O=C(NC1(C(=O)O)C2CC3CC(C2)CC1C3)c1cnc(N2CC3(CCOCC3)c3cc(OCCN4CCOCC4)ccc32)nc1C(F)(F)F (centres unmarked) [Compound I-86] | – | – | EC50 [1, 6]: < 0.01 µM; EC50 (RSV A2 strain; [7]): < 0.01 µM |
| COc1nc(N2CCc3cc(OCCC4CCOCC4)ccc32)nc(C(F)(F)F)c1C(=O)NC1(C(=O)O)C2CC3CC(C2)CC1C3 (centres unmarked) [Compound I-88] | – | – | EC50 [1, 6]: 0.01 to 0.1 µM; EC50 (RSV A2 strain; [7]): < 0.01 µM |
| COc1ccc2c(n1)C1(CCOCC1)CN2c1ncc(C(=O)NC2(C(=O)O)C3CC4CC(C3)CC2C4)c(C(F)(F)F)n1 (centres unmarked) [Compound I-91] | – | – | EC50 [1, 6]: 0.01 to 0.1 µM; EC50 (RSV A2 strain; [7]): < 0.01 µM |
| O=C(NC1(C(=O)O)C2CC3CC(C2)CC1C3)c1cnc(N2CC3(CCOCC3)c3cc(OC4CCN(C5CC5)CC4)ccc32)nc1C(F)(F)F (centres unmarked) [Compound I-92] | – | – | EC50 [1, 6]: < 0.01 µM; EC50 (RSV A2 strain; [7]): < 0.01 µM |
| Cc1ccc2c(c1)C1(CCOCC1)CN2c1ncc(C(=O)NC2(C(=O)O)C3CC4CC(C3)CC2C4)c(C(F)(F)F)n1 (centres unmarked) [Compound I-109] | – | – | EC50 [1, 6]: 0.01 to 0.1 µM; EC50 (RSV A2 strain; [7]): < 0.01 µM |
| NC(=O)C1(NC(=O)c2cnc(N3CC4(CCOCC4)c4cc(OC5CCN(c6ncccn6)CC5)ccc43)nc2C(F)(F)F)C2CC3CC(C2)CC1C3 (centres unmarked) [Compound I-135] | 0.01 to 0.1 | < 0.01 | – |
| O=C(NC1(C(=O)O)C2CC3CC(C2)CC1C3)c1cnc(-c2cn(C3CCOCC3)c3cc(OC4CCN(c5ncccn5)CC4)ccc23)nc1C(F)(F)F (centres unmarked) [Compound I-146] | < 0.01 | < 0.01 | – |
| O=C(NC1(C(=O)O)C2CC3CC(C2)CC1C3)c1ccc(-c2cn(C3CCOCC3)c3cc(OC4CCN(c5ncccn5)CC4)ccc23)nc1C(F)(F)F (centres unmarked) [Compound I-147] | < 0.01 | < 0.01 | – |
| O=C(NC1(C(=O)O)C2CC3CC(C2)CC1C3)c1ccc(-c2cn(-c3ccccc3)c3cc(OC4CCN(c5ncccn5)CC4)ccc23)nc1C(F)(F)F (centres unmarked) [Compound I-148] | – | – | EC50 [1, 4]: 0.0028 µM; EC50 (RSV A2 strain; [5]): 0.0015 µM |
| O=C(NC1(C(=O)O)C2CC3CC(C2)CC1C3)c1ccc(-c2cn(C3COC3)c3cc(OC4CCN(c5ncccn5)CC4)ccc23)nc1C(F)(F)F (centres unmarked) [Compound I-151] | < 0.01 | < 0.01 | – |
| O=C(NC1(C(=O)O)C2CC3CC(C2)CC1C3)c1ccc(-c2cn(C(=O)OC3CCOCC3)c3cc(OC4CCN(c5ncccn5)CC4)ccc23)nc1C(F)(F)F (centres unmarked) [Compound I-152] | < 0.01 | < 0.01 | – |
| O=C(N[C@@]1(C(=O)O)C2CC3C[C@@H]1C[C@](F)(C3)C2)c1cnc(N2CCc3cc(OCCC4CCOCC4)ccc32)nc1C(F)(F)F [Compound I-155] | 0.01 to 0.1 | < 0.01 | – |
| O=C(NC1(C(=O)O)C2CC3CC(C2)CC1C3)c1ccc(-c2nn(C3CCOCC3)c3cc(OC4CCN(c5ncccn5)CC4)ccc23)nc1C(F)(F)F (centres unmarked) [Compound I-158] | < 0.01 | < 0.01 | – |
| O=C(NC1(C(=O)O)C2CC3CC(C2)CC1C3)c1cnc(-c2nn(C3CCOCC3)c3cc(OC4CCN(c5ncccn5)CC4)ccc23)nc1C(F)(F)F (centres unmarked) [Compound I-159] | – | – | EC50 [1, 4]: 0.003 µM; EC50 (RSV A2 strain; [5]): 0.00088 µM |

Source: patent US12528790B2, “Amide derivative having antiviral activity” (Shionogi & Co., Ltd., priority 2020, dated 2026)
